Tests used:
HCT-116 = test: Compound was tested for inhibition of proliferation of human colon cancer cell line (HCT116); type: functional, cell-based
[1] = target: Tubulin alpha chain (Sus scrofa) (UniProt P02550); test: Compound was tested for effective concentration for tubulin polymerization expressed as ratio of compound relative to taxol (EC0.01 at 5 uM); type: functional
Tubulin alpha chain (Sus scrofa), sequence (P02550 whole entry, looked up): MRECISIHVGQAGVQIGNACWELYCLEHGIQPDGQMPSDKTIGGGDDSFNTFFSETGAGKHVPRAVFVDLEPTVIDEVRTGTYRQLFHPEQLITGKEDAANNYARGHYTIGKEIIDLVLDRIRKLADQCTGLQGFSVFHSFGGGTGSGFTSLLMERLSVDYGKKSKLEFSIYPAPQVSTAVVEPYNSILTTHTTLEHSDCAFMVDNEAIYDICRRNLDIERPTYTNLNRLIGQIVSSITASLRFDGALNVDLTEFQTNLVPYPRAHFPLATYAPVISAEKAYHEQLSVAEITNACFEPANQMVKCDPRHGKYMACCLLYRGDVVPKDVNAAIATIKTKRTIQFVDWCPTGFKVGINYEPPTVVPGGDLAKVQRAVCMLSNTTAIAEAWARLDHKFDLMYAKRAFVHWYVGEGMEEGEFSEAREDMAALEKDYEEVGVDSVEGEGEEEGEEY

CC(=O)O[C@H]1C(=O)[C@@]2(C)[C@H]([C@H](OC(=O)c3ccccc3)[C@]3(O)C[C@H](OC(=O)[C@H](O)[C@@H](NC(=O)c4ccccc4)c4ccccc4)C(C)=C1C3(C)C)[C@]1(OC(C)=O)CO[C@@H]1C[C@@H]2O [PACLITAXEL] was tested. Which IC50 (HCT-116) did it give?
Its IC50 is 2 nM.

Which results are given for CC(=O)O[C@H]1C(=O)[C@@]2(C)C([C@H](OC(=O)C3CCCCC3)[C@]3(O)C[C@H](OC(=O)[C@H](O)[C@@H](NC(=O)c4ccccc4)c4ccccc4)C(C)=C1C3(C)C)[C@]1(OC(C)=O)CO[C@@H]1C[C@@H]2O (some centres not stated)?
IC50 (HCT-116): > 91 nM; Ratio [1]: 130

COc1ccc(C(=O)O[C@H]2C3[C@](C)(C(=O)[C@H](OC(C)=O)C4=C(C)[C@@H](OC(=O)[C@H](O)[C@@H](NC(=O)c5ccccc5)c5ccccc5)C[C@]2(O)C4(C)C)[C@@H](O)C[C@H]2OC[C@@]32OC(C)=O)cc1 (some centres not stated) was tested. Which IC50 (HCT-116) did it give?
The IC50 was greater than 88 nM.

And the Ratio [1]?
Its Ratio is greater than 250.

What does the source list for CC(=O)O[C@H]1C(=O)[C@@]2(C)C([C@H](OC(=O)c3ccc([N+](=O)[O-])cc3)[C@]3(O)C[C@H](OC(=O)[C@H](O)[C@@H](NC(=O)c4ccccc4)c4ccccc4)C(C)=C1C3(C)C)[C@]1(OC(C)=O)CO[C@@H]1C[C@@H]2O (some centres not stated)?
IC50 (HCT-116): > 85 nM; Ratio [1]: > 250

Reference: ChEMBL document CHEMBL1127240, “Structure-activity relationships of taxol: synthesis and biological evaluation of C2 taxol analogs” (Bioorg Med Chem Lett, 1994)
